The values that follow come from paper PMC8524670 (Pharmacology Research & Perspectives, 2021).

One data set has as its system CYP2B6. The data set can be described thus: CYP induction in human hepatocytes. The class given is in vitro ADME. The settings on record: human, cryopreserved human hepatocytes.
Data set [1] addresses T1, P-gp (Homo sapiens, UniProt P08183). Briefly: P-gp inhibition in Caco-2 cells. The class given is in vitro ADME. The settings on record: human, Caco-2, probe digoxin.
Data set [2] concerns the target T2, OCT2 (Homo sapiens, UniProt O15244).
T2 sequence (O15244 1-555): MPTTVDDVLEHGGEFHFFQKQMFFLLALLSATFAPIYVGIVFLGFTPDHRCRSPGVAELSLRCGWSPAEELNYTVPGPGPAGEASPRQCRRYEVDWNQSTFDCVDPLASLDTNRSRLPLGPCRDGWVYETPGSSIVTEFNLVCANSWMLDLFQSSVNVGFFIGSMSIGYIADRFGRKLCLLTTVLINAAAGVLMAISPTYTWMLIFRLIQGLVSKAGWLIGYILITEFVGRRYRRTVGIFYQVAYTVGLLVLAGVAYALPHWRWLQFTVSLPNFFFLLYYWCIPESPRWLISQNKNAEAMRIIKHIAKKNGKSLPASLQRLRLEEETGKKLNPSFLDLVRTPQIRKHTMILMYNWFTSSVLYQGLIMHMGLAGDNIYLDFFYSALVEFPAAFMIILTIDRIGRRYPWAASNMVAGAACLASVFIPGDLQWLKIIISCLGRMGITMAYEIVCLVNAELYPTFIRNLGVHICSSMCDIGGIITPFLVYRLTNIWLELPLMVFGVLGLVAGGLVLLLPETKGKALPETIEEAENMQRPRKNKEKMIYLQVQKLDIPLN
The data set can be described thus: SLC transportation assay in HEK293 cells. The class given is in vitro ADME. The settings on record: control substrate, 50 µM.

For data set [3], the target named is T3, human BCRP (Homo sapiens, UniProt Q9UNQ0).
T3 sequence (Q9UNQ0 1-655): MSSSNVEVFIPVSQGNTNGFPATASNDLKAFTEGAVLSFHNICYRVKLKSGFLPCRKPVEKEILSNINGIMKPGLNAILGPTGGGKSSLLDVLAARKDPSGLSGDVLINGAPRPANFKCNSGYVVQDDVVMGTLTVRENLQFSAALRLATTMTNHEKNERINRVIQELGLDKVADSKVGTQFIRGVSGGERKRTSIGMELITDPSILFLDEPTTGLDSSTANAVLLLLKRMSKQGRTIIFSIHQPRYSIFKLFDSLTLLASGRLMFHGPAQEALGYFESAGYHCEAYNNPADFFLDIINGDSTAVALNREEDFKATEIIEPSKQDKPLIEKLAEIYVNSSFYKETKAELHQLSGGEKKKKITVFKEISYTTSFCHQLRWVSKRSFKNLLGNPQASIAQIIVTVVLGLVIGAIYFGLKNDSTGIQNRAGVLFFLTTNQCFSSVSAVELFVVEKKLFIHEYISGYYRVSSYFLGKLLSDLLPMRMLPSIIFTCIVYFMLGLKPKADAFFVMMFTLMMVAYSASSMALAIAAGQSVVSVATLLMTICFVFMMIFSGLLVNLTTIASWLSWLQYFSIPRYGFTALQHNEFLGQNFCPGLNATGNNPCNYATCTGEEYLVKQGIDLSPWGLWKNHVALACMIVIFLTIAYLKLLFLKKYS
The data set can be described thus: BCRP transportation in inside-out vesicles. The class given is in vitro ADME. The settings on record: BCRP vesicles, LFY 10 μM probe substrate.

The target in data set [4] is T3, human BCRP. Briefly: BCRP inhibition in vesicles. The class given is in vitro ADME. The settings on record: BCRP inhibition assay, buffer vehicle.
In data set [5] the target is T4, OAT3 (Homo sapiens, UniProt Q8TCC7).
T4 sequence (Q8TCC7 1-542): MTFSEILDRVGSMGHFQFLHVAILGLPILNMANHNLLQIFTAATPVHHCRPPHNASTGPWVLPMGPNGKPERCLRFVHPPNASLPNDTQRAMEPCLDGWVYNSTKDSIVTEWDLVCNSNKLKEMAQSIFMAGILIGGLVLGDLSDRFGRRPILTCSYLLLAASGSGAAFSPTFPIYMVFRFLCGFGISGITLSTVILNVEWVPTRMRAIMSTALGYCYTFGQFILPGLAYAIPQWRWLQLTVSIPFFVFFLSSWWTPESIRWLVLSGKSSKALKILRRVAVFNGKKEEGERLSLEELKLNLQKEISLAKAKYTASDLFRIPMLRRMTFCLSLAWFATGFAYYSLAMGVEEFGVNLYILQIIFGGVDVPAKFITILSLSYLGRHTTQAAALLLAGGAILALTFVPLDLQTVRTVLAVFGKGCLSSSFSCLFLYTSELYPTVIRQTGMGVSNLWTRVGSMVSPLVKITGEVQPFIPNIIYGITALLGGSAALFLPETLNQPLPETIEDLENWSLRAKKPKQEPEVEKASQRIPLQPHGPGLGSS
The data set can be described thus: SLC transportation assay in HEK293 cells. The data set is classed as in vitro ADME. The settings on record: control substrate, 20 µM.

The subject of the next data set is CYP1A2. The data set can be described thus: in vitro. The settings on record: human, positive control omeprazole 50 µM.
In the next data set the test system is CYP3A. The settings on record: cited from earlier work.
For the next data set, the target named is T5, OATP1B1 (Homo sapiens, UniProt Q9Y6L6).
T5 sequence (Q9Y6L6 1-691): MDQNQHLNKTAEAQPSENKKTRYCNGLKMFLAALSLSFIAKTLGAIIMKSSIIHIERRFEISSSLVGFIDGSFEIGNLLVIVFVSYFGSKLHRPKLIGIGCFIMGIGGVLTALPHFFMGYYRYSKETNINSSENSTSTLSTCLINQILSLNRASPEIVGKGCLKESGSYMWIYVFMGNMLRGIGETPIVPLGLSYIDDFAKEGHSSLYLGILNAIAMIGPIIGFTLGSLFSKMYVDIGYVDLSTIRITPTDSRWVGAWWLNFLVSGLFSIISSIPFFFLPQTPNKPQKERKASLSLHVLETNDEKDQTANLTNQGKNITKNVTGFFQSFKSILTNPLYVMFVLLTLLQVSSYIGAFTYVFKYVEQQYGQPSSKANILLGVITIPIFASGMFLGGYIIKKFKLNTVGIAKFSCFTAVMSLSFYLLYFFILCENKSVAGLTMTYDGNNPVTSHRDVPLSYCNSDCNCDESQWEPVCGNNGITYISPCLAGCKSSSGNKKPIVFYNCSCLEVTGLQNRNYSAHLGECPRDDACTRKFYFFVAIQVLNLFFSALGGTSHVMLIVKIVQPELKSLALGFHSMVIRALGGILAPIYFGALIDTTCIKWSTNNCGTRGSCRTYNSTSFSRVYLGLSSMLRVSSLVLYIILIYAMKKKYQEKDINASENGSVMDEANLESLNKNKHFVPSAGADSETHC
The data set can be described thus: SLC transportation assay in HEK293 cells. The data set is classed as in vitro ADME. The settings on record: control substrate, 20 µM.

The next data set concerns the target T6, OATP1B3 (Homo sapiens, UniProt Q9NPD5).
T6 sequence (Q9NPD5 1-702): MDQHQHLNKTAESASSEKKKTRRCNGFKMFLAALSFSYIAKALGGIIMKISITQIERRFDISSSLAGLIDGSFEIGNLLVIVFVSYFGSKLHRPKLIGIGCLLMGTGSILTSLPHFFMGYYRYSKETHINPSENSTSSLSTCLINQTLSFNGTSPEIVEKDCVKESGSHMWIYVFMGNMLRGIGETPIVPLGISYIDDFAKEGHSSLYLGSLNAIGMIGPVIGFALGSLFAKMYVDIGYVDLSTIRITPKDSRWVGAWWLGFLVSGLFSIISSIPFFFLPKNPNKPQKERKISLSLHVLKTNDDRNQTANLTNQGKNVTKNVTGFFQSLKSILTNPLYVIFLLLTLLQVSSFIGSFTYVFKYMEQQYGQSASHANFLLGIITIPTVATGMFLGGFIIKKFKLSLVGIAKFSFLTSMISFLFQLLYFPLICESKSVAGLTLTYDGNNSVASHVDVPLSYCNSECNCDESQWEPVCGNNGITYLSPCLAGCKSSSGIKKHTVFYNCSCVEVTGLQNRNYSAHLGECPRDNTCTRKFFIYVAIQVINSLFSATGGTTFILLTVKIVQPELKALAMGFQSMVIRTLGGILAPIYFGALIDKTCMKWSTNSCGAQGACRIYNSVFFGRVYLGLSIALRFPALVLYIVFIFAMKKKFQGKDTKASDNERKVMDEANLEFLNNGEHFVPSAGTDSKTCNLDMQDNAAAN
Briefly: SLC transportation assay in HEK293 cells. The class given is in vitro ADME. The settings on record: control substrate, 20 µM.

In data set [6] the target is T1, P-gp. The settings on record: healthy subjects; cited from earlier work.
Data set [7] concerns the target T4, OAT3. The data set can be described thus: SLC inhibition assay in HEK293 cells. The class given is in vitro ADME. The settings on record: human, HEK293 cells overexpressing OAT3 (and MOCK cells), probe estrone sulfate.
In data set [8] the target is T2, OCT2. Briefly: SLC inhibition assay in HEK293 cells. The settings on record: human, HEK293 cells overexpressing OCT2 (and MOCK cells), probe metformin. The data set is classed as in vitro ADME.

Structures can show the parent of a compound that is named as a salt.

T1 sequence (P08183 whole entry): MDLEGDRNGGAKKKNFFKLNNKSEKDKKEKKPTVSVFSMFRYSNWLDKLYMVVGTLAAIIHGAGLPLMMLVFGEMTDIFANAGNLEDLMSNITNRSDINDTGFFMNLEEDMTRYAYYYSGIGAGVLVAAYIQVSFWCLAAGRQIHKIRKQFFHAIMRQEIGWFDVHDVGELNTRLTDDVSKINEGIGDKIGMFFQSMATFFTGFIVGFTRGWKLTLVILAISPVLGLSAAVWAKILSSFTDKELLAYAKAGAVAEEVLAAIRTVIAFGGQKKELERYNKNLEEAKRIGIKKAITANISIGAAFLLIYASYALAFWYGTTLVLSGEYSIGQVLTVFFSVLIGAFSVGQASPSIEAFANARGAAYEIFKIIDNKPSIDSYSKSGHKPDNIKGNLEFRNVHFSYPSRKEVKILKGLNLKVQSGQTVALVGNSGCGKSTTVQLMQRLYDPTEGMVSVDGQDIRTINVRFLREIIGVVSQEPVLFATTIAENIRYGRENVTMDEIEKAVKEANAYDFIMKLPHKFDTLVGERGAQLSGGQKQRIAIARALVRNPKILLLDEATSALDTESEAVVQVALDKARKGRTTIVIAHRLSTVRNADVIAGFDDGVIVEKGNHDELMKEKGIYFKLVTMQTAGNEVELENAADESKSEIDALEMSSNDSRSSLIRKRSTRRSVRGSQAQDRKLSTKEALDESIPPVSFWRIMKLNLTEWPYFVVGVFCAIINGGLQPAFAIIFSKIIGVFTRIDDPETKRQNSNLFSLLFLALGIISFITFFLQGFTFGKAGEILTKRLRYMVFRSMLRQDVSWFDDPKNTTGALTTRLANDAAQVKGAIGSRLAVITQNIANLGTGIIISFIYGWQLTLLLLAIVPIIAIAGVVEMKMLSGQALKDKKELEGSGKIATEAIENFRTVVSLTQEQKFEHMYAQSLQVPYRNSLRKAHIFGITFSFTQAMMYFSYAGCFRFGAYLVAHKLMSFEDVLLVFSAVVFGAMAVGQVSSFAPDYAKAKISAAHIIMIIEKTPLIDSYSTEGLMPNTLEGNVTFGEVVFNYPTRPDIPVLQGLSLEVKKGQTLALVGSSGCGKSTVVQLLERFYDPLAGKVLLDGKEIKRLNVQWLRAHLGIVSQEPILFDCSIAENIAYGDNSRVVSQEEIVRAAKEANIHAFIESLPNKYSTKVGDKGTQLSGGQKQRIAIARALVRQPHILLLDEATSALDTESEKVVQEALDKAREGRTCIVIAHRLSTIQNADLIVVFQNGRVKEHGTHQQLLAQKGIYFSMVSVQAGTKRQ

As to `CCC1(c2ccccc2)C(=O)NC(=O)NC1=O` [phenobarbital, reference compound], the fold induction (in general, the signal under treatment as a multiple of the control signal) at 2 days, 1000 µM in the data set on CYP2B6 is 6.4 ± 3; in the data set with CYP2B6 (probe bupropion), 9.6 ± 5.4.

Take `C[C@H]1O[C@@H](O[C@H]2[C@@H](O)C[C@H](O[C@H]3[C@@H](O)C[C@H](O[C@H]4CC[C@@]5(C)[C@H](CC[C@@H]6[C@@H]5C[C@@H](O)[C@]5(C)[C@@H](C7=CC(=O)OC7)CC[C@]65O)C4)O[C@@H]3C)O[C@@H]2C)C[C@H](O)[C@@H]1O` [Digoxin, reference compound]: at P-gp [1], the Papp B→A (in general, how fast a substance crosses the layer from the basolateral side) at 120 min, 10 µM is 15.4 ± 0.4 ×10⁻⁶ cm/s.

Take `CN(C)C(=N)N=C(N)N` [Metformin, reference compound]: the Uptake ratio on OCT2 [2] was 3.49 ± 0.26.

“Lucifer Yellow [LFY, reference compound]”: the “Uptake ratio (ATP versus AMP)” value at human BCRP [3] was 17.4 ± 0.31 fold. In addition, at human BCRP [4], the “Uptake ratio of LFY” value is on record as 14.9 fold.

Consider `C[C@]12CC[C@@H]3c4ccc(OS(=O)(=O)O)cc4CC[C@H]3[C@@H]1CCC2=O` [Estrone sulfate, reference compound], for which, on OAT3 [5], the Uptake ratio is 16.1 ± 0.45.

With `COc1ccc2[nH]c([S+]([O-])Cc3ncc(C)c(OC)c3C)nc2c1` (stereo not shown) [Omeprazole], the results for the fold induction at 2 days, 50 µM in the data set with CYP1A2 (Fold induction of activity) and with CYP1A2 (Fold induction of mRNA level) were 42 ± 6.4 and 82 ± 94, respectively.

With `CC[C@H](Nc1ncnc2[nH]cnc12)c1nc2cccc(F)c2c(=O)n1-c1ccccc1` [idelalisib], in the data set with CYP3A, the “Increase of exposure of midazolam” value is 5.15 fold.

Consider `C[C@]12CC[C@@H]3c4ccc(O)cc4CC[C@H]3[C@@H]1CC[C@@H]2O[C@@H]1O[C@H](C(=O)O)[C@@H](O)[C@H](O)[C@H]1O` [Estradiol‐17β‐glucuronide, reference compound], for which the Uptake ratio at OATP1B1 came out at 38.5 ± 5.5; at OATP1B3 it was 5.82 ± 0.62.

Turning to `CCOc1cc2ncc(C#N)c(Nc3ccc(OCc4ccccn4)c(Cl)c3)c2cc1NC(=O)/C=C/CN(C)C` [neratinib], on P-gp [6], the “Increase of AUC of digoxin” value is given as 32% and the “Increase of mean digoxin C max” value is on record as 54%.

In the case of `CCCN(CCC)S(=O)(=O)c1ccc(C(=O)O)cc1` [Probenecid, reference compound], on OAT3 [7], the activity at 50 µM was determined as 12.5 ± 8%.

In turn, `C=C[C@H]1C[N@@]2CC[C@H]1C[C@@H]2[C@@H](O)c1ccnc2ccc(OC)cc12` [Quinidine, reference compound] registered an activity at 500 µM at OCT2 [8] of 31.5 ± 8%.
